In patent US9938272B2, “Hydrazine compound as blood coagulation factor Xa inhibitor” (NORTH CHINA PHARMACEUTICAL COMPANY., LTD., priority 2014, dated 2018):

Tests used:
Type in all cases: biochemical
[1] = biological target: human thrombin (Homo sapiens (Human), UniProt P00734); test: Human thrombin assay; details: substrate S-2238
[2] = biological target: prothrombinase (Homo sapiens (Human), UniProt P00742); test: Prothrombinase assay (thrombin generation); details: human factor Xa with human platelets, prothrombin, substrate S-2238
Chain of prothrombinase (P00742 235-488): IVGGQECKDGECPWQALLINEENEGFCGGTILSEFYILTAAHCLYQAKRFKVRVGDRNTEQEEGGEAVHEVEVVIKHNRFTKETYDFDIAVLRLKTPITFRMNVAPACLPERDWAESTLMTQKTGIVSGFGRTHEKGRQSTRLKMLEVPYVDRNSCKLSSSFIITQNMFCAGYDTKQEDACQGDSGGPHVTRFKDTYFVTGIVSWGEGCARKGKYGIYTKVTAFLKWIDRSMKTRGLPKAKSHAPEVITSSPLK
Chain of prothrombinase (P00742 41-179): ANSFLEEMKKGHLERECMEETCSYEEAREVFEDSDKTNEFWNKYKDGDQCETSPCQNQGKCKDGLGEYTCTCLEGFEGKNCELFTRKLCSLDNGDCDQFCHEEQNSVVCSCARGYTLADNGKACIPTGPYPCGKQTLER
Chain of prothrombinase (P12259 29-737 partner): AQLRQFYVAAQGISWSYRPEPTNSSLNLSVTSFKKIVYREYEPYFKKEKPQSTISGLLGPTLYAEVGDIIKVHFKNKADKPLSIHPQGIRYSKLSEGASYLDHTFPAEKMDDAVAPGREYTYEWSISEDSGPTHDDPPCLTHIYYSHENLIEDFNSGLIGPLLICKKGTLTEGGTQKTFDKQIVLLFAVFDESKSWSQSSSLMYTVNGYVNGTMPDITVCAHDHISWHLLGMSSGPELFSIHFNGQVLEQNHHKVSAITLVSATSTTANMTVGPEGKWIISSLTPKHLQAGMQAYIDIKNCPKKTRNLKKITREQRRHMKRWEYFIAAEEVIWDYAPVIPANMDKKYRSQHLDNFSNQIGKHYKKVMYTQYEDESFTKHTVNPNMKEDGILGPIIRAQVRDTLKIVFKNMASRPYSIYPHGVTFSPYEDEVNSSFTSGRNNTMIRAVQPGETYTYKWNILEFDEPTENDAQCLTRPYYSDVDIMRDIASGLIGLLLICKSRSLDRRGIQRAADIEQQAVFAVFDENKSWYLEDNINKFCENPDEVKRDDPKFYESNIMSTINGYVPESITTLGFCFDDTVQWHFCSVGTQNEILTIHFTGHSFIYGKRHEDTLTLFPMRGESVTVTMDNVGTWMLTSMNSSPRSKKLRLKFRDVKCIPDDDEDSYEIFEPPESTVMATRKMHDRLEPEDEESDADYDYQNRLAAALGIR
Chain of prothrombinase (P12259 1574-2224 partner): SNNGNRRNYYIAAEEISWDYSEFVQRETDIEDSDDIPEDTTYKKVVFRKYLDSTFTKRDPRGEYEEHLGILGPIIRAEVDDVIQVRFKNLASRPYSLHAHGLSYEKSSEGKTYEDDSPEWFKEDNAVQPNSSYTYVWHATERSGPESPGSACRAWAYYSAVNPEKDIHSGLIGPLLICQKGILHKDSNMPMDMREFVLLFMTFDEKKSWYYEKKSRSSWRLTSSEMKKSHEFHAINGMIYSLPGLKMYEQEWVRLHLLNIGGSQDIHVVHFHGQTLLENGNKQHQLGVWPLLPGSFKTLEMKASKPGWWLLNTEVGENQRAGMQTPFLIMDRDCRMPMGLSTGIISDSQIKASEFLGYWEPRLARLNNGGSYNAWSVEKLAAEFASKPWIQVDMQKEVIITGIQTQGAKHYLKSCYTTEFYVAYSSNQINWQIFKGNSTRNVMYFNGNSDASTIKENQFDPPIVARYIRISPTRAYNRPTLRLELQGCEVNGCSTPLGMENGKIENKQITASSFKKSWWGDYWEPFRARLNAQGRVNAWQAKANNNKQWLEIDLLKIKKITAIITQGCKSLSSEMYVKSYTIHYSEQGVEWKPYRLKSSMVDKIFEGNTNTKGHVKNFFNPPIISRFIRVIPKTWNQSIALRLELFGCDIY

[3] = biological target: rat Factor Xa (Rattus norvegicus (Rat), UniProt Q63207); test: Rat factor Xa chromogenic assay; details: substrate S-2222, read-out: rfXa Ki
Chain of rat Factor Xa (Q63207 232-482): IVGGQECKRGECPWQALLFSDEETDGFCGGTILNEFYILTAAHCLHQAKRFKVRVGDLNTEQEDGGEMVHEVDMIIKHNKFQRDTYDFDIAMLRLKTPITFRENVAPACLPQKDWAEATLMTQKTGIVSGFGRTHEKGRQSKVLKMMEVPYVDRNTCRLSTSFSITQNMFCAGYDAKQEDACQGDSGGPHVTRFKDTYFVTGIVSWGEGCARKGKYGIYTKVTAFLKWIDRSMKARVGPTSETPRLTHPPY
Chain of rat Factor Xa (Q63207 41-180): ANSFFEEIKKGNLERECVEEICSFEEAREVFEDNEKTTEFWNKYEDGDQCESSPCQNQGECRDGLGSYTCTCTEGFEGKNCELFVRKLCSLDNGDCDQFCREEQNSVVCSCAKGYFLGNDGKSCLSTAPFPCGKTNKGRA

[4] = biological target: human Factor Xa (Homo sapiens (Human), UniProt P00742); test: Human factor Xa chromogenic assay; details: substrate S-2222, read-out: hfXa Ki
Chain of human Factor Xa (P00742 235-488): as the sequence (P00742 235-488) above
Chain of human Factor Xa (P00742 41-179): as the sequence (P00742 41-179) above

[5] = biological target: human trypsin (Homo sapiens, UniProt P07477); test: Human trypsin assay; details: substrate S-2222

Ki [1]	Ki [2]	Ki [3]	Ki [4]	Ki [5]	Structure (SMILES)
≥ 1000 nM	10 to 50 nM	10 to 50 nM	≤ 10 nM	≥ 1000 nM	COc1ccc(-n2nc(C(N)=O)c3c2C(=O)N(C2CCN(C4CCNC4=O)CC2)CC3)cc1 (single isomer, unassigned) [Example 8b, 1-(4-Methoxyphenyl)-7-oxo-6-(1-(2-oxopyrrolidin-3-yl)piperidin-4-yl)-4,5,6,7-tetrahydro-1H-pyrazolo[3,4-c]pyridine-3-carboxamide]
≥ 1000 nM	≤ 10 nM	≤ 10 nM	≤ 10 nM	≥ 1000 nM	COc1ccc(-n2nc(C(F)(F)F)c3c2C(=O)N(C2CCN(N4CCCC4=O)CC2)CC3)cc1 [Example 3, 1-(4-Methoxyphenyl)-6-(1-(2-oxopyrrolidin-1-yl)piperidin-4-yl)-3-(trifluoromethyl)-5,6-dihydro-1H-pyrazolo[3,4-c]pyridin-7(4H)-one]
≥ 1000 nM	≤ 10 nM	10 to 50 nM	≤ 10 nM	≥ 1000 nM	COc1ccc(-n2nc(C(N)=O)c3c2C(=O)N(C2CCN(N4CCCCC4=O)CC2)CC3)cc1 [Example 4, 1-(4-Methoxyphenyl)-7-oxo-6-(2′-oxo-[1,1′-bipiperidin]-4-yl)-4,5,6,7-tetrahydro-1H-pyrazolo[3,4-c]pyridine-3-carboxamide]
	10 to 50 nM		10 to 50 nM		COc1ccc(-n2nc(C(N)=O)cc2C(=O)NC2CCN(N3CCOCC3=O)CC2)cc1 [Example 15, 1-(4-Methoxyphenyl)-N^5-(1-(3-oxomorpholino)piperidin-4-yl)-1H-pyrazole-3,5-dicarboxamide]
			50 to 1000 nM		COc1ccc(-n2nc(C(N)=O)cc2C(=O)NC2CCN(N3CCOCC3=O)C2)cc1 (stereo not drawn) [Example 19, 1-(4-Methoxyphenyl)-N^5-(1-(3-oxomorpholino)pyrrolidin-3-yl)-1H-pyrazole-3,5-dicarboxamide]
≥ 1000 nM	≤ 10 nM	≤ 10 nM	≤ 10 nM	≥ 1000 nM	Nc1noc2ccc(-n3nc(C(F)(F)F)c4c3C(=O)N(C3CCN(N5CCOCC5=O)CC3)CC4)cc12 [Example 26, 4-(4-(1-(3-Aminobenzo[d]isoxazol-5-yl)-7-oxo-3-(trifluoromethyl)-4,5-dihydro-1H-pyrazolo[3,4-c]pyridin-6(7H)-yl)piperidin-1-yl)morpholin-3-one]
≥ 1000 nM	≤ 10 nM	10 to 50 nM	10 to 50 nM	≥ 1000 nM	COc1ccc(-n2nc(C#N)c3c2C(=O)N(C2CCN(N4CCCCC4=O)CC2)CC3)cc1 [Example 5, 1-(4-Methoxyphenyl)-7-oxo-6-(2′-oxo-[1,1′-bipiperidin]-4-yl)-4,5,6,7-tetrahydro-1H-pyrazolo[3,4-c]pyridine-3-carbonitrile]
≥ 1000 nM	≤ 10 nM	≤ 10 nM	≤ 10 nM	≥ 1000 nM	COc1ccc(-n2nc(C(F)(F)F)c3c2C(=O)N(C2CCN(N4CCOCC4=O)CC2)CC3)cc1F [Example 28, 4-(4-(1-(3-Fluoro-4-methoxyphenyl)-7-oxo-3-(trifluoromethyl)-4,5-dihydro-1H-pyrazolo[3,4-c]pyridin-6(7H)-yl)piperidin-1-yl)morpholin-3-one]
			10 to 50 nM		NC(=O)c1nn(-c2ccc(Cl)cc2)c2c1CCN(C1CCN(N3CCOCC3=O)CC1)C2=O [Example 9, 1-(4-Chlorophenyl)-7-oxo-6-(1-(3-oxomorpholino)piperidin-4-yl)-4,5,6,7-tetrahydro-1H-pyrazolo[3,4-c]pyridine-3-carboxamide]
			50 to 1000 nM		N#Cc1cc(-n2nc(C(F)(F)F)c3c2C(=O)N(C2CCN(N4CCOCC4=O)CC2)CC3)ccc1OC(F)F [Example 30, 2-(Difluoromethoxy)-5-(7-oxo-6-(1-(3-oxomorpholino)piperidin-4-yl)-3-(trifluoromethyl)-4,5,6,7-tetrahydro-1H-pyrazolo[3,4-c]pyridin-1-yl)benzonitrile]
≥ 1000 nM	≤ 10 nM	10 to 50 nM	≤ 10 nM	≥ 1000 nM	O=C1c2c(c(C(F)(F)F)nn2-c2ccc(OC(F)F)cc2)CCN1C1CCN(N2CCOCC2=O)CC1 [Example 23, 4-(4-(1-(4-(Difluoromethoxy)phenyl)-7-oxo-3-(trifluoromethyl)-4,5-dihydro-1H-pyrazolo[3,4-c]pyridin-6(7H)-yl)piperidin-1-yl)morpholin-3-one]
			50 to 1000 nM		COc1ccc(-n2nc(C(N)=O)cc2C(=O)N(C2CC2)C2CCN(N3CCOCC3=O)CC2)cc1 [Example 18, N^5-Cyclopropyl-1-(4-methoxyphenyl)-N^5-(1-(3-oxomorpholino)piperidin-4-yl)-1H-pyrazole-3,5-dicarboxamide]
≥ 1000 nM	50 to 1000 nM	50 to 1000 nM	≤ 10 nM	≥ 1000 nM	NC(=O)c1nn(-c2ccc(OC(F)(F)F)cc2)c2c1CCN(C1CCN(N3CCOCC3=O)CC1)C2=O [Example 10, 7-Oxo-6-(1-(3-oxomorpholino)piperidin-4-yl)-1-(4-(trifluoromethoxy)phenyl)-4,5,6,7-tetr a hydro-1H-pyrazolo[3,4-c]pyridine-3-carboxamide]
			10 to 50 nM		NC(=O)c1cc(C(=O)NC2CCN(N3CCOCC3=O)CC2)n(C2CCOCC2)n1 [Example 20, N^5-(1-(3-Oxomorpholino)piperidin-4-yl)-1-(tetrahydro-2H-pyran-4-yl)-1H-pyrazole-3,5-dicarboxamide]
			10 to 50 nM		N#Cc1cccc(-n2nc(C(F)(F)F)c3c2C(=O)N(C2CCN(N4CCOCC4=O)CC2)CC3)c1 [Example 27, 3-(7-Oxo-6-(1-(3-oxomorpholino)piperidin-4-yl)-3-(trifluoromethyl)-4,5,6,7-tetrahydro-1H-pyrazolo[3,4-c]pyridin-1-yl)benzonitrile]
≥ 1000 nM	≤ 10 nM	10 to 50 nM	≤ 10 nM	≥ 1000 nM	NC(=O)c1nn(-c2ccc(OC(F)F)cc2)c2c1CCN(C1CCN(N3CCOCC3=O)CC1)C2=O [Example 11, 1-(4-(Difluoromethoxy)phenyl)-7-oxo-6-(1-(3-oxomorpholino)piperidin-4-yl)-4,5,6,7-tetra hydro-1H-pyrazolo[3,4-c]pyridine-3-carboxamide]
			50 to 1000 nM		CS(=O)(=O)N1CCC(n2nc(C(N)=O)cc2C(=O)NC2CCN(N3CCOCC3=O)CC2)CC1 [Example 21, 1-(1-(Methylsulfonyl)piperidin-4-yl)-N^5-(1-(3-oxomorpholino)piperidin-4-yl)-1H-pyrazole-3,5-dicarboxamide]
			50 to 1000 nM		NC(=O)c1cc(-n2nc(C(F)(F)F)c3c2C(=O)N(C2CCN(N4CCOCC4=O)CC2)CC3)ccc1OC(F)F [Example 33, 2-(Difluoromethoxy)-5-(7-oxo-6-(1-(3-oxomorpholino)piperidin-4-yl)-3-(trifluoromethyl)-4,5,6,7-tetrahydro-1H-pyrazolo[3,4-c]pyridin-1-yl)benzamide]
			50 to 1000 nM		CCN(C(=O)c1cc(C(N)=O)nn1-c1ccc(OC)cc1)C1CCN(N2CCOCC2=O)CC1 [Example 17, N^5-Ethyl-1-(4-methoxyphenyl)-N^5-(1-(3-oxomorpholino)piperidin-4-yl)-1H-pyrazole-3,5-dicarboxamide]
≥ 1000 nM	10 to 50 nM	10 to 50 nM	≤ 10 nM	≥ 1000 nM	NC(=O)c1cccc(-n2nc(C(F)(F)F)c3c2C(=O)N(C2CCN(N4CCOCC4=O)CC2)CC3)c1 [Example 31, 3-(7-Oxo-6-(1-(3-oxomorpholino)piperidin-4-yl)-3-(trifluoromethyl)-4,5,6,7-tetrahydro-1H-pyrazolo[3,4-c]pyridin-1-yl)benzamide]
			50 to 1000 nM		NC(=O)c1cc(-n2nc(C(F)(F)F)c3c2C(=O)N(C2CCN(N4CCOCC4=O)CC2)CC3)ccc1F [Example 32, 2-Fluoro-5-(7-oxo-6-(1-(3-oxomorpholino)piperidin-4-yl)-3-(trifluoromethyl)-4,5,6,7-tetra hydro-1H-pyrazolo[3,4-c]pyridin-1-yl)benzamide]
			50 to 1000 nM		N#Cc1cc(-n2nc(C(F)(F)F)c3c2C(=O)N(C2CCN(N4CCOCC4=O)CC2)CC3)ccc1F [Example 25, 2-Fluoro-5-(7-oxo-6-(1-(3-oxomorpholino)piperidin-4-yl)-3-(trifluoromethyl)-4,5,6,7-tetra hydro-1H-pyrazolo[3,4-c]pyridin-1-yl)benzonitrile]
			50 to 1000 nM		COC1CCC(n2nc(C(N)=O)cc2C(=O)NC2CCN(N3CCOCC3=O)CC2)CC1 (stereo not drawn) [Example 22, 1-(4-Methoxycyclohexyl)-N^5-(1-(3-oxomorpholino)piperidin-4-yl)-1H-pyrazole-3,5-dicarboxamide]
		10 to 50 nM	50 to 1000 nM		COc1ccc(-n2nc(C(N)=O)c3c2C(=O)N(C2CCN(C4CCNC4=O)CC2)CC3)cc1 (single isomer, unassigned) [Example 8a, 1-(4-Methoxyphenyl)-7-oxo-6-(1-(2-oxopyrrolidin-3-yl)piperidin-4-yl)-4,5,6,7-tetrahydro-1H-pyrazolo[3,4-c]pyridine-3-carboxamide]
			50 to 1000 nM		COc1ccc(-n2nc(C(N)=O)cc2C(=O)N(C)C2CCN(N3CCOCC3=O)CC2)cc1 [Example 16, 1-(4-Methoxyphenyl)-N^5-methyl-N^5-(1-(3-oxomorpholino)piperidin-4-yl)-1H-pyrazole-3,5-dicarboxamide]
			10 to 50 nM		COc1ccc(-n2nc(C(N)=O)c3c2C(=O)N(C2C4CN(N5CCOCC5=O)CC42)CC3)cc1 (stereo not drawn) [Example 13, 1-(4-Methoxyphenyl)-7-oxo-6-(3-(3-oxomorpholino)-3-azabicyclo[3.1.0]hexan-6-yl)-4,5,6,7-tetrahydro-1H-pyrazolo[3,4-c]pyridine-3-carboxamide]
			10 to 50 nM		COc1ccc(-n2nc(C(N)=O)c3c2C(=O)N(C2C4CN(N5CCCCC5=O)CC42)CC3)cc1 (stereo not drawn) [Example 12, 1-(4-Methoxyphenyl)-7-oxo-6-(3-(2-oxopiperidin-1-yl)-3-azabicyclo[3.1.0]hexan-6-yl)-4,5,6,7-tetrahydro-1H-pyrazolo[3,4-c]pyridine-3-carboxamide]
